{
  "source": "patent US5883119A",
  "about": "“Triterpene derivatives with immunosuppressant activity” (Merck & Co., Inc., priority 1996, dated 1999)",
  "origin": "cited, not measured here",
  "tested_on": "Kv 1.3 channels (CHO cells transfected with Kv 1.3 channels)",
  "conditions": "stated in the method as property of the control blocker",
  "data": [
    {"substance": "margatoxin (TIINVKCTSPKQCLPPCKAQFGQSAGAKCMNGKCKCYPH; UniProt P40755 1-39, looked up)", "values": [
      {"measurement": "IC50", "result": 0.1, "unit": "nM"}
    ]}
  ]
}
